Values joined by “and” are separate entries in the source; they are usually repeats but may differ in a detail not shown here. Identical values can stand only once.
How the values were obtained:
[1] = tested on: CD133 (+) Huh7 cells; assay: Anchorage-independent growth assay in soft agar; type: cell-based, human; conditions: retinoic acid 5 μg/ml, SAHA 0.5 μg/ml; 2 weeks
Protocol: Freshly sorted CD133 (+)/(−) Huh7 cells were mixed with 0.35% agarose containing 1000 cells per well in culture medium with retinoic acid (5 μg/ml), SAHA (0.5 μg/ml), or a combination of both. After 2 weeks, the colony numbers were counted.

[2] = tested on: TICs; assay: RNA sequencing of drug treated TICs; type: cell-based, mouse; conditions: ATRA 5 μg/ml, 16 hours
Protocol: RNA sequencing samples were collected at 16 hours of treatment with ATRA (5 μg/ml), SAHA (0.5 μg/ml) or combination treatment. Total RNA for RNA sequencing was extracted using RNeasy Plus Mini Kit (Qiagen), which includes a DNA depletion column. DNase I treatment and rRNA depletion with Tibozero technology were performed before RNA sequencing. Sample quantity and quality was verified by spectrophotometry (NanoDrop 1000), fluorimetry (Qubit), and the Aglient Bioanalyzer 2100 profiler. RNA Integrity Number (RIN) values of >7.0 and OD260/280=2.0-2.2 were used for RNA-seq library preparation. Extracted RNA (1 μg) was used for RNA sequencing (Illumina HiSeq2500 system). Sequenced reads were cleaned according to a rigorous pre-processing workflow (Trimmomatic-0.32) before mapping them to the mouse genome (mm10) using SHRiMP2.2.3 (http://compbio.cs.toronto.edu/shrimp/). Cufflinks2.0.2 (cuffdiff2-Running Cuffdiff) was then used to perform differential expression analysis with a FDR cutoff of 0.05 (95% confidence interval). A Perl script was used after differential expression analysis to improve the readability of the results files. Quality control information was generated via Fastqc: www.bioinformatics.babraham.ac.uk/projects/fastqc/. […] All gene expression profiles were analyzed by Partek Flow, Ingenuity Pathway Analysis and Gene Set Enrichment Analysis.

[3] = CD133 cell viability screening (luminescence, CellTiter-Glo); type: cell-based; conditions: human, CD133 (−) Huh7 cells (freshly MACS-sorted)
Protocol: (§1) CD133(+) and CD133(−) Huh7 cells were freshly sorted using the MACS CD133 micro bead kit (Miltenyi Biotec, 130-050-801) and were seeded in 100 μl medium containing 5000 cells per well in a 96-well plate. Once the cells attached, the FDA approved drug library was added to each well to a final concentration of 20 μg/ml in duplicate. After incubation for 48 hours, the cell viability was determined by a luminescence assay. […] After 16 hours, 1 μl of a […] drug solution was individually added to the 96 wells, resulting in a 20 μg/ml final concentration for most compounds. After 48 hours, CellTiter-Glo® Reagent (G8233, Promega) was added and the luminescence signal was measured with an automated plate reader. The raw data for each well was background-corrected by DMSO control wells on the same plate.

[4] = tested on: CD133 (+) Huh7 cells; assay: as above; type: cell-based; conditions: Homo sapiens, Huh-7
Protocol: as §1
Freshly sorted CD133 (+) Huh7 or mouse TICs were plated in 100 μl of medium containing 5000 cells per well in a 96-well plate. After 16 hours, 0.5 μl of a 2 μg/ml, 1 μg/ml, 0.2 μg/ml, 0.1 μg/ml, 0.02 μg/ml, or 0.01 μg/ml compound was added to each well in triplicate, resulting in a 10 μg/ml, 5 μg/ml, 1 μg/ml, 0.5 μg/ml, 0.1 μg/ml, and 0.05 μg/ml final concentration for most compounds, respectively. After 48 hours, the cells were either measured for cell viability by Cell-Glo® Reagent (Promega), or fixed with 1% PFA (paraformaldehyde) and stained with DAPI for high-throughput screening.

[5] = tested on: patient-derived TICs; assay: Subcutaneous xenograft of patient-derived TICs in NSG mice; type: in vivo, mouse; conditions: no SAHA, i.p.
Protocol: To establish prognostic biomarkers for the best combination chemotherapy, five different patient-derived TICs were tested for responses as xenografts in NSG mice for the best combination chemotherapy based on mutation/transcriptome subtypes. Anti-tumorigenic ability by ATRA+SAHA targeting TICs encapsulated with SAHA was validated (Table 3). […] As placebo treatment, solvent (DMSO) in an equal total volume (0.2 ml/mouse) was injected. Tumor growth kinetics was studied. Combination of ATRA with SAHA further inhibited the self-renewal abilities of TICs in vivo (FIG. 17E).

[6] = tested on: CD133 (+) Huh7 cells; assay: Tumor spheroid formation assay; type: cell-based, human; conditions: CD133 (+) group; ATRA 5 μg/ml, SAHA 0.5 μg/ml; 2 weeks
Protocol: Freshly sorted CD133(+)/(−) Huh7 cells were plated in a low binding culture plate (NUNC 145397) containing 100 cells per well in 100 μl of culture medium with ATRA (5 μg/ml), SAHA (0.5 μg/ml), or a combination of both. After 2 weeks, colony numbers were counted.

CC1=C(/C=C/C(C)=C/C=C/C(C)=C/C(=O)O)C(C)(C)CCC1 [ATRA, all-trans retinoic acid]
reduction of colony numbers, anchorage independent growth in soft agar [1]: 50% | genes differentially expressed from the controls [2]: 189 genes | viability at 48 h, 20 μg/ml [3]: 72% | viability at 20 µg/mL ([4]; 20 μg/ml, 48 hours): 41.4% | IC50 ([4]; CD133 killing effect, FIG. 44A): 4.06 µg/mL and 13.5 µM | anti-tumorigenic ability, % (animals/total) ([5]; ATRA 100 mg/m^2/day): 22% (7/32) | anti-tumorigenic ability, % (animals/total) ([5]; ATRA 150 mg/m^2/day): 19% (6/32) | reduction of colony numbers, tumor spheroid formation [6]: 83%
